Measurements as given in ChEMBL document CHEMBL4145503, “Design, synthesis and in vitro biological evaluation of novel [1,2,3]triazolo[4,5-d]pyrimidine derivatives containing a thiosemicarbazide moiety” (Eur J Med Chem, 2018).

How the values were obtained:
Type in all cases: functional, cell-based
[1] = test system: MGC-803; assay: Antiproliferative activity against human MGC803 cells after 72 hrs by MTT assay; conditions: MGC-803, 72 h
[2] = test system: NCI-H1650; assay: Antiproliferative activity against human NCI-H1650 cells after 72 hrs by MTT assay; conditions: NCI-H1650, 72 h
[3] = test system: PC-3; assay: Antiproliferative activity against human PC3 cells after 72 hrs by MTT assay; conditions: PC-3, 72 h

Row | Structure (SMILES) | IC50 [1] | IC50 [2] | IC50 [3]
1 | O=c1[nH]cc(F)c(=O)[nH]1 [FLUOROURACIL] | 7.86 µM | 14.6 µM | 27.6 µM
2 | CCCSc1nc(NNC(=S)NCc2ccccc2)c2nnn(CCc3c[nH]c4ccccc34)c2n1 | 30.3 µM | > 64 µM | 15.3 µM
3 | CCCSc1nc(NNC(=S)NCc2ccccc2)c2nnn(CCc3cccs3)c2n1 | 41.1 µM | > 64 µM | > 64 µM
